Measurements from US9156845B2, “4-(substituted amino)-7H-pyrrolo[2,3-d] pyrimidines as LRRK2 inhibitors” (Pfizer Inc., priority 2012, dated 2015).

Key:
[1] = biological target: MAP3K4 (Homo sapiens (Human), UniProt Q9Y6R4); test: ActivX kinase probe assay (human PBMC); format: binding; conditions: read-out: percent inhibition
[2] = biological target: MAP3K1 (Homo sapiens (Human), UniProt Q13233); test: ActivX kinase probe assay (human PBMC); format: binding; conditions: read-out: percent inhibition
[3] = biological target: AMPKa1 (Homo sapiens (Human), UniProt Q13131); test: ActivX kinase probe assay (human PBMC); format: binding; conditions: read-out: percent inhibition
[4] = biological target: RSK2 domain2 (Homo sapiens (Human), UniProt P51812); test: ActivX kinase probe assay (human PBMC); format: binding; conditions: read-out: percent inhibition
[5] = biological target: SGK3 (Homo sapiens (Human), UniProt Q96BR1); test: ActivX kinase probe assay (human PBMC); format: binding; conditions: read-out: percent inhibition
[6] = biological target: NDR1 (Homo sapiens (Human), UniProt Q15208); test: ActivX kinase probe assay (human PBMC); format: binding; conditions: read-out: percent inhibition
[7] = tested on: Wnk1, Wnk2, Wnk4; test: ActivX kinase probe assay (human PBMC); format: binding
[8] = biological target: SYK (Homo sapiens (Human), UniProt P43405); test: ActivX kinase probe assay (human PBMC); format: binding; conditions: read-out: percent inhibition
[9] = biological target: STLK5 (Homo sapiens (Human), UniProt Q7RTN6); test: ActivX kinase probe assay (human PBMC); format: binding; conditions: read-out: percent inhibition
[10] = biological target: KHS1 (Homo sapiens (Human), UniProt Q9Y4K4); test: ActivX kinase probe assay (human PBMC); format: binding; conditions: read-out: percent inhibition
[11] = tested on: IKKe, TBK1; test: ActivX kinase probe assay (human PBMC); format: binding
[12] = biological target: GST-tagged truncated LRRK2 (Homo sapiens (Human), UniProt Q5S007); test: LRRK2 Lantha Screen kinase assay; format: biochemical; conditions: geometric mean of 2-5 determinations unless otherwise indicated (a: >=6 determinations; b: single determination); read-out: LRRK2 WT IC50
[13] = biological target: RSK1 domain2 (Homo sapiens (Human), UniProt Q15418); test: ActivX kinase probe assay (human PBMC); format: binding; conditions: read-out: percent inhibition
[14] = biological target: CaMK2g (Homo sapiens (Human), UniProt Q13555); test: ActivX kinase probe assay (human PBMC); format: binding; conditions: read-out: percent inhibition
[15] = biological target: ILK (Homo sapiens (Human), UniProt Q13418); test: ActivX kinase probe assay (human PBMC); format: binding; conditions: read-out: percent inhibition
[16] = biological target: FES (Homo sapiens (Human), UniProt P07332); test: ActivX kinase probe assay (human PBMC); format: binding; conditions: read-out: percent inhibition
[17] = biological target: ACK (Homo sapiens (Human), UniProt Q07912); test: ActivX kinase probe assay (human PBMC); format: binding; conditions: read-out: percent inhibition
[18] = tested on: PITSLRE; test: ActivX kinase probe assay (human PBMC); format: binding
[19] = biological target: MLK3 (Homo sapiens (Human), UniProt Q16584); test: ActivX kinase probe assay (human PBMC); format: binding; conditions: read-out: percent inhibition
[20] = tested on: p70S6K, p70S6Kb; test: ActivX kinase probe assay (human PBMC); format: binding
[21] = biological target: PKD2 (Homo sapiens (Human), UniProt Q9BZL6); test: ActivX kinase probe assay (human PBMC); format: binding; conditions: read-out: percent inhibition
[22] = biological target: JAK3 domain2 (Homo sapiens (Human), UniProt P52333); test: ActivX kinase probe assay (human PBMC); format: binding; conditions: read-out: percent inhibition
[23] = biological target: MAP2K4 (Homo sapiens (Human), UniProt P45985); test: ActivX kinase probe assay (human PBMC); format: binding; conditions: read-out: percent inhibition
[24] = biological target: ZC2/TNIK (Homo sapiens (Human), UniProt Q9UKE5); test: ActivX kinase probe assay (human PBMC); format: binding; conditions: read-out: percent inhibition
[25] = biological target: IRAK4 (Homo sapiens (Human), UniProt Q9NWZ3); test: ActivX kinase probe assay (human PBMC); format: binding; conditions: read-out: percent inhibition
[26] = biological target: PAN3 (Homo sapiens (Human), UniProt Q58A45); test: ActivX kinase probe assay (human PBMC); format: binding; conditions: read-out: percent inhibition
[27] = biological target: DNAPK (Homo sapiens (Human), UniProt P78527); test: ActivX kinase probe assay (human PBMC); format: binding; conditions: read-out: percent inhibition
[28] = biological target: MAP3K3 (Homo sapiens (Human), UniProt Q99759); test: ActivX kinase probe assay (human PBMC); format: binding; conditions: read-out: percent inhibition
[29] = biological target: GSK3B (Homo sapiens (Human), UniProt P49841); test: ActivX kinase probe assay (human PBMC); format: binding; conditions: read-out: percent inhibition
[30] = biological target: NEK9 (Homo sapiens (Human), UniProt Q8TD19); test: ActivX kinase probe assay (human PBMC); format: binding; conditions: read-out: percent inhibition
[31] = biological target: TLK1 (Homo sapiens (Human), UniProt Q9UKI8); test: ActivX kinase probe assay (human PBMC); format: binding; conditions: read-out: percent inhibition
[32] = biological target: MLKL (Homo sapiens (Human), UniProt Q8NB16); test: ActivX kinase probe assay (human PBMC); format: binding; conditions: read-out: percent inhibition
[33] = tested on: MAP2K1, MAP2K2; test: ActivX kinase probe assay (human PBMC); format: binding
[34] = biological target: IKKa (Homo sapiens (Human), UniProt O15111); test: ActivX kinase probe assay (human PBMC); format: binding; conditions: read-out: percent inhibition
[35] = biological target: TAO2 (Homo sapiens (Human), UniProt Q9UL54); test: ActivX kinase probe assay (human PBMC); format: binding; conditions: read-out: percent inhibition

Sequence of MLK3 (Q16584 whole entry): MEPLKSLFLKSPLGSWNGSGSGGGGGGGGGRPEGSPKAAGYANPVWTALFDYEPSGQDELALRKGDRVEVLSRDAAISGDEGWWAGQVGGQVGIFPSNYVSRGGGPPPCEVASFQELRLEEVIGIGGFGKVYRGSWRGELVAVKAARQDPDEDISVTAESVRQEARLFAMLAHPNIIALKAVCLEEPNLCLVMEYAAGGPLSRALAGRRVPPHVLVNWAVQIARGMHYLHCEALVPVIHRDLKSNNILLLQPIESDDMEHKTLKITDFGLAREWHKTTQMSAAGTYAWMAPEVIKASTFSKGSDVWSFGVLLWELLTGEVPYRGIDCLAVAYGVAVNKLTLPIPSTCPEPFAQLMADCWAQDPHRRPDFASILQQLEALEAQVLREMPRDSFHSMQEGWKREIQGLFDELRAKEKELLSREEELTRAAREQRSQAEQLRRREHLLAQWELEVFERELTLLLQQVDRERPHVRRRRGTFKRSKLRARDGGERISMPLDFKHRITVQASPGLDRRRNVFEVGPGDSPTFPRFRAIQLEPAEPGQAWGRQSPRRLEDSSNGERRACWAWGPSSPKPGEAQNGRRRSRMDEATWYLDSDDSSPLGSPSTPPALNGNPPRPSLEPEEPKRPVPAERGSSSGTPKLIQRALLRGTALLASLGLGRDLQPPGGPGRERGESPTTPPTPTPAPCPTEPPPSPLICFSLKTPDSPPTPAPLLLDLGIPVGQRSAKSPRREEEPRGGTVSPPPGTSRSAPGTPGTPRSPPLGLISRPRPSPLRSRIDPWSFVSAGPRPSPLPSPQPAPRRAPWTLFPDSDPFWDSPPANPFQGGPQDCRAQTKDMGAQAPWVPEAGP
Sequence of TLK1 (Q9UKI8 whole entry): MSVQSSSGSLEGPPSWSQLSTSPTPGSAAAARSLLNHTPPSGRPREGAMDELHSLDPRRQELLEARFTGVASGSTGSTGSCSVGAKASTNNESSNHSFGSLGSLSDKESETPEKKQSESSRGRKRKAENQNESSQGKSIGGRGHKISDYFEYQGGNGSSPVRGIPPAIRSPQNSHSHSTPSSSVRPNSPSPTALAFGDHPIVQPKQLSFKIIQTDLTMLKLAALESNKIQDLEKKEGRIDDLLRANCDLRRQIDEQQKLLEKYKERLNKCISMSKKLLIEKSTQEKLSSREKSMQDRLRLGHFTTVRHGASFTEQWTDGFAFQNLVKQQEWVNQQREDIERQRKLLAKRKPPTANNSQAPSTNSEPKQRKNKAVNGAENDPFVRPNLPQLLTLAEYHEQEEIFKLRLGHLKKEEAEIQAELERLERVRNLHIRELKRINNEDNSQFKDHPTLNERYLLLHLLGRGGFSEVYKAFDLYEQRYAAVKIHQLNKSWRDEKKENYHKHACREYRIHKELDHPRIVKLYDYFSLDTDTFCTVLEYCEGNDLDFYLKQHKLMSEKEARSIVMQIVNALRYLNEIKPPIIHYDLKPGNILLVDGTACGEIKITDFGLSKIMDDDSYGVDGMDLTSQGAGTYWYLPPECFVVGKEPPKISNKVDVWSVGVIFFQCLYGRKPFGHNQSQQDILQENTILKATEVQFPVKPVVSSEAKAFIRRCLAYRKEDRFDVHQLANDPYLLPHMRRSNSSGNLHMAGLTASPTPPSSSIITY
Sequence of KHS1 (Q9Y4K4 whole entry): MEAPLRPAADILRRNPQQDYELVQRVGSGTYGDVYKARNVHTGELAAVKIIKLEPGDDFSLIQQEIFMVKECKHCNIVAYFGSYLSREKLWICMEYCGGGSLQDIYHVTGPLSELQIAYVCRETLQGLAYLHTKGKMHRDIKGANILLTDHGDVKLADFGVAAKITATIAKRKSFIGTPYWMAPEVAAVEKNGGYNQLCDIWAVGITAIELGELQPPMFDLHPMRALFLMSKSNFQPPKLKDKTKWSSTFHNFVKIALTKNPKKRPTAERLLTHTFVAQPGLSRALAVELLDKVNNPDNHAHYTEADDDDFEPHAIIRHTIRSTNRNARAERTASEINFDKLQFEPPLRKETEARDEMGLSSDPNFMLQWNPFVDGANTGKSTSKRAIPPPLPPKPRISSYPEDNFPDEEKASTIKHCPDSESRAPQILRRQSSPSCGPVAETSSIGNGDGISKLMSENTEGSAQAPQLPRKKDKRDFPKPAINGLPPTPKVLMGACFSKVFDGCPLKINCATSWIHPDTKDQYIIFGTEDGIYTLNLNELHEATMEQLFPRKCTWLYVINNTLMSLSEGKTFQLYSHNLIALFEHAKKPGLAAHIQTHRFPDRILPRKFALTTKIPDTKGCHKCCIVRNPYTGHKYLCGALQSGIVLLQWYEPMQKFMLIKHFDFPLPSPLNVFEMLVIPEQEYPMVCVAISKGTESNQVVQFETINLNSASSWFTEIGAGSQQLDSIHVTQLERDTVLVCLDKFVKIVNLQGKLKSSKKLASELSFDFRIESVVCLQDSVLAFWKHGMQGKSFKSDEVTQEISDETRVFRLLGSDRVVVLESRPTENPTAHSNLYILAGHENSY
Sequence of FES (P07332 whole entry): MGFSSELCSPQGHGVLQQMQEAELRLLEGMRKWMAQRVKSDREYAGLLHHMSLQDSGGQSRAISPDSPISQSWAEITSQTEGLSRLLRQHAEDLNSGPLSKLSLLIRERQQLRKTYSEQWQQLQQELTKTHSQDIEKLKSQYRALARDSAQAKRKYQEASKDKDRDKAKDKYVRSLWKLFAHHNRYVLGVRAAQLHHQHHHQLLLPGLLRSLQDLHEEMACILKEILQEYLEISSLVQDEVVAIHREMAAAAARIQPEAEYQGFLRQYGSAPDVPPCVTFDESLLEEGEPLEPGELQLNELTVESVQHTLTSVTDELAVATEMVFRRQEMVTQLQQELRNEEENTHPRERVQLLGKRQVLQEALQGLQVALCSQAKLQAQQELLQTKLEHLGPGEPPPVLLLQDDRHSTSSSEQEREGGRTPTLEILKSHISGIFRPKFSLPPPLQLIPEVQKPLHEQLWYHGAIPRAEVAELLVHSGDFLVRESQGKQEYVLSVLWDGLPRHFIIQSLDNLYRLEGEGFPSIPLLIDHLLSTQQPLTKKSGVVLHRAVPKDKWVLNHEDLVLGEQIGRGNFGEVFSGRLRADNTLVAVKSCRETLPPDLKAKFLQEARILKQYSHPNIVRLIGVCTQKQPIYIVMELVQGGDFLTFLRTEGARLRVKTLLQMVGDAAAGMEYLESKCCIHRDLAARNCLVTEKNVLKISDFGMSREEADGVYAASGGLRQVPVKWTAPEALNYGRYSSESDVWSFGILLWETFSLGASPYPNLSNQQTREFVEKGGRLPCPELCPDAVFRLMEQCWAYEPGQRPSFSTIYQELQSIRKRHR
Sequence of ACK (Q07912 whole entry): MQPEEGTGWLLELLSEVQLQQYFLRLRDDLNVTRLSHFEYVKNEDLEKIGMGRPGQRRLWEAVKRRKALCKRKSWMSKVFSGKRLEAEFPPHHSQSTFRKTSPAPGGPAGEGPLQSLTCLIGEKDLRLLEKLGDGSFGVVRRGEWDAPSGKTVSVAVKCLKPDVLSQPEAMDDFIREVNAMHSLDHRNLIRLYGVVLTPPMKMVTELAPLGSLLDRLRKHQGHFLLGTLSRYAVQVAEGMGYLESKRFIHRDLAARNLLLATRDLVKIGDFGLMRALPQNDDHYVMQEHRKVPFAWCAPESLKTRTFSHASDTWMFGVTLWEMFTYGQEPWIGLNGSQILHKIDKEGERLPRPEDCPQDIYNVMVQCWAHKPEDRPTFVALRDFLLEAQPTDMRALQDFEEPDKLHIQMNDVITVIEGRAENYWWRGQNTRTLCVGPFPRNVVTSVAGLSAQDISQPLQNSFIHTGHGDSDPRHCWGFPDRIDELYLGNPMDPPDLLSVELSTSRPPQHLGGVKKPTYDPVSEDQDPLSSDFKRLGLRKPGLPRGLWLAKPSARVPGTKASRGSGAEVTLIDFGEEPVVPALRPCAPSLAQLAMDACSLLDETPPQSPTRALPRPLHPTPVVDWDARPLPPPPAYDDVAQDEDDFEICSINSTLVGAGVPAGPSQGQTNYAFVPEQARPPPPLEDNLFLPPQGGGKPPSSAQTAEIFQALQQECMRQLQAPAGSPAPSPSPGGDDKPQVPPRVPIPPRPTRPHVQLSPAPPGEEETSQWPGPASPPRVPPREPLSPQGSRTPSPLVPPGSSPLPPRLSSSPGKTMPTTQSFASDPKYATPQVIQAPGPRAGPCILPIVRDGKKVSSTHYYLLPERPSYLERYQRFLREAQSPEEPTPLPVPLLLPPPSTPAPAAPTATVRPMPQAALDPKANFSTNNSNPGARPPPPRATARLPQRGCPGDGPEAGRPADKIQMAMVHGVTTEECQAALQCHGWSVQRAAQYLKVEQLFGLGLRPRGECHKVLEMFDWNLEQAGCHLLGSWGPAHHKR
Sequence of MAP2K4 (P45985 whole entry): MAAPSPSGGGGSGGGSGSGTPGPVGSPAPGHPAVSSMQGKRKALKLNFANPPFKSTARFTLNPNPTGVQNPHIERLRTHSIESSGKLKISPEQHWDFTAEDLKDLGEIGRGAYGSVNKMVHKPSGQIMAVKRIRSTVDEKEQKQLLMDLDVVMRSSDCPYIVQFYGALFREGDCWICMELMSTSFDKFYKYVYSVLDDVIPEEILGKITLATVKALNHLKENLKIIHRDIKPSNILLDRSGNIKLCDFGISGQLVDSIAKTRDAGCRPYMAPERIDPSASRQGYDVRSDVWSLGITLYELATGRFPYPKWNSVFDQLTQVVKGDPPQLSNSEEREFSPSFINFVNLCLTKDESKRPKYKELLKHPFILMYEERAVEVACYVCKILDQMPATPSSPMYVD

In the case of `N#Cc1cccc(-c2c[nH]c3ncnc(N4CCOCC4)c23)c1` [Example 4, 3-[4-(Morpholin-4-yl)-7H-pyrrolo[2,3-d]pyrimidin-5-yl]benzonitrile], the inhibition at 0.1 µM [1] is reported as 9.7%, the inhibition at 1 µM [1] is reported as 29.8% and the inhibition at 0.1 µM [2] is reported as 6.4%. The inhibition at 1 µM [2] was 44.5%, the inhibition at 0.1 µM [3] was -2.1% and the inhibition at 1 µM [3] was 16.4%. For the same compound, the inhibition at 0.1 µM [4] was -10%, the inhibition at 1 µM [4] was 21.4% and the inhibition at 0.1 µM [5] was -5.5%. It also gave an inhibition at 1 µM [5] of -0.8%, an inhibition at 0.1 µM [6] of -4.4% and an inhibition at 1 µM [6] of 1.7%. For the same compound, the percent inhibition ([7]; 0.1 μM) was −1.9%, the percent inhibition ([7]; 1 μM) was −1.3% and the inhibition at 0.1 µM [8] was -8.3%. It also gave an inhibition at 1 µM [8] of 7.2%, an inhibition at 0.1 µM [9] of -15.4% and an inhibition at 1 µM [9] of 1.2%. It also gave an inhibition at 0.1 µM [10] of -25.9%, an inhibition at 1 µM [10] of 12.9% and a percent inhibition ([11]; 0.1 μM) of −6.7%. It also gave a percent inhibition ([11]; 1 μM) of 18.8%, an IC50 [12] of 3 nM and an inhibition at 0.1 µM [13] of 2.7%. For the same compound, the inhibition at 1 µM [13] was 55.8%, the inhibition at 0.1 µM [14] was -13.6% and the inhibition at 1 µM [14] was 2.9%. The inhibition at 0.1 µM [15] was -8.9%, the inhibition at 1 µM [15] was -31.6% and the inhibition at 0.1 µM [16] was -9.2%. For the same compound, the inhibition at 1 µM [16] was 6.9%, the inhibition at 0.1 µM [17] was 0.8% and the inhibition at 1 µM [17] was 7.7%. The percent inhibition ([18]; 0.1 μM) was −12.4%, the percent inhibition ([18]; 1 μM) was 10.7% and the inhibition at 0.1 µM [19] was -14.1%. For the same compound, the inhibition at 1 µM [19] was 19.9%, the percent inhibition ([20]; 0.1 μM) was −10.5% and the percent inhibition ([20]; 1 μM) was −9.6%. The inhibition at 0.1 µM [21] was 0.7%, the inhibition at 1 µM [21] was 9.4% and the inhibition at 0.1 µM [22] was 6.9%. The inhibition at 1 µM [22] was 6.8%, the inhibition at 0.1 µM [23] was -20.5% and the inhibition at 1 µM [23] was 19.2%. For the same compound, the inhibition at 0.1 µM [24] was -7.9%, the inhibition at 1 µM [24] was 29.2% and the inhibition at 0.1 µM [25] was -12.8%. For the same compound, the inhibition at 1 µM [25] was 10.7%, the inhibition at 0.1 µM [26] was -0.2% and the inhibition at 1 µM [26] was 15.1%. For the same compound, the inhibition at 0.1 µM [27] was -19.3%, the inhibition at 1 µM [27] was 14.7% and the inhibition at 0.1 µM [28] was -0.5%. The inhibition at 1 µM [28] was 7.4%, the inhibition at 0.1 µM [29] was -3.7% and the inhibition at 1 µM [29] was 6.7%. The inhibition at 0.1 µM [30] was -7.1%, the inhibition at 1 µM [30] was 1% and the inhibition at 0.1 µM [31] was -4.6%. For the same compound, the inhibition at 1 µM [31] was -3.7%, the inhibition at 0.1 µM [32] was -10.1% and the inhibition at 1 µM [32] was 14.5%. It also gave a percent inhibition ([33]; 0.1 μM) of −7.1%, a percent inhibition ([33]; 1 μM) of 6.4% and an inhibition at 0.1 µM [34] of -12.1%. It also gave an inhibition at 1 µM [34] of -6.6%, an inhibition at 0.1 µM [35] of -12.7% and an inhibition at 1 µM [35] of -2.5%.
